This test has as its system Ae. aegypti AL glomeruli. In words: Two-photon calcium imaging (PUb-GCaMP6s) of the antennal lobe, Ae. aegypti. The class given is in vivo. From the text: A total of twenty preparations were used: 10 for single odorant and orchid mixture experiments; 6 for ratio experiments; and 4 for experiments using GABA-receptor antagonists. […] The expression of GCaMP occurred in glia, local interneurons, and projection neurons. […] Thus, in the calcium imaging experiments care was taken to image from the central regions of the glomeruli and avoid the sheaths and external glomerular loci. […] Relatedly, GCaMP6s expression is very high in AL local interneurons and projection neurons (PNs), such that during odor stimulation the PNs and axonal processes can often be imaged, and 3D reconstructions can be take place through simultaneous optical sections with odor stimulation. Nonetheless, the glomerular responses were assumed to be a function of multiple cell types.
Similar to experiments with Ae. increpitus, the majority the mosquitoes were UV-glued to the stage to allow free movement of their wings and proboscis; however, for experiments using GABA-receptor antagonists the proboscis was glued to the stage for additional stability. Once the mosquito was fixed to the stage, a window in its head was cut to expose the brain, and the brain was continuously superfused with physiological saline.
Thus a provisional atlas was created with female mosquitoes (n=6) that allowed for cross-reference of the imaged glomeruli and comparison of their positions and structures to those described in the atlas. This was accomplished via clear glomerular boundaries, especially during odor stimulation, and the distinct odorant tuning of glomeruli throughout the depths of the AL (e.g., AM2 responsive to DEET; LC2 and AL3 responsive to nonanal; PD3 responsive to geosmin; and MD2 responsive to CO2) that allowed 3D registration across preparations and subsequent warping and referencing with the atlas.
Saline and pharmacological agents. The saline was made based on the Beyenbach and Masia recipe (L. B. Thien, F. Utech, The mode of pollination in Habenaria obtusata (Orchidaceae). American Journal of Botany 57, 1031-1035 (1970)) and contained 150.0 mM NaCl, 25.0 mM N-2-hydroxyethyl-piperazine-N′-2-ethanesulfonic acid (HEPES), 5.0 mM sucrose, 3.4 mM KCl, 1.8 mM NaHCO3, 1.7 mM CaCl2, and 1.0 mM MgCl2. The pH was adjusted to 7 with 1 M NaOH. […] […] A drip system comprising two 100 mL reservoirs—one containing the GABA receptor antagonists, and the other saline—converged on the two-channel temperature controller to facilitate rapid switching from normal physiological saline solution to the antagonists and back. Antagonists were superfused directly into the holder near to the opening of the head capsule and recorded neuropil. The odor-evoked responses were first recorded under normal physiological saline solution and then repeated under GABA receptor antagonists diluted in normal saline solution, and finally the normal saline wash. All calcium imaging data were statistically analyzed using Kruskal-Wallis tests with multiple comparisons and visualized using Principal Components Analysis. Analyses were performed in Matlab (v2017; Mathworks, Natick, Mass.).
Olfactory stimuli were delivered to the mosquito by pulses of air diverted through a 2 mL cartridge containing a piece of filter paper bearing the odor stimulus (2 An air line provided gentle and constant charcoal-filtered air at 1 m/s to the antennae allowing continuous ventilation to prevent adaptation of the olfactory receptor cells. The stimulus output was positioned in the air line 2 cm from and orthogonal to the mosquito antennae. For testing different ratios of lilac aldehyde and nonanal, two syringes bearing different concentrations of the odorants were used and positioned such that the outputs were positioned in the same location in the air stream. […]

The mark [1] stands for this setting: lilac aldehyde and nonanal at different concentration ratios.

Consider one compound from patent US20220132839A1, “MOSQUITO ATTRACTANT COMPOSITIONS” (UNIVERSITY OF WASHINGTON, priority 2019, published 2022).

“Also recorded” adds a separate entry of the source.

Turning to `CCCCCCCCC=O` [nonanal], the “glomerular responses in the AL” value (imaged at 40 μm depth, particularly AL3 and LC2 glomeruli for the mixture) is “strong responses”. Also, under setting [1], the “AM2 response to lilac aldehyde/nonanal mixtures” value is listed as “caused suppression of AM2 responses to lilac aldehyde” and the “LC2 response to lilac aldehyde/nonanal mixtures” value was “increasing the activation of LC2”. Besides, the AM2 glomerulus response result (odor stimulation) is “often exhibited inhibition”. Further, the AL3 glomerulus response result (odorant tuning used for glomerular registration) is listed as “responsive”. Under “single odorants”, the LC2 glomerulus response result is given as “responsive; also recorded: strongest response”.
